Measurements from ChEMBL document CHEMBL3885861, “Open TG-GATES”.

Organism: Rattus norvegicus
Assay: Open TG-GATES - Regimen: Single
Type: toxicity, organism-based, Sprague-Dawley
Design: regimen Single, gender Male, age 6 weeks
Details: in vivo, po, route gavage; for APTT / Bas / Eos / Fbg / Hb / Ht / MCH / MCHC / MCV / Mono / PT / Plat / RBC / Ret / WBC: tissue Blood; for ALT / CRE / DBIL / GLC / IP / K / LDH / Na / PL / RALB / TBIL / TC / TG / TP / gamma-GTP / ALP: tissue Plasma
[1] = 200 mg/kg, 3 h, dose level Middle
[2] = 200 mg/kg, 6 h, dose level Middle
[3] = 200 mg/kg, 9 h, dose level Middle
[4] = 200 mg/kg, 24 h, dose level Middle
[5] = 600 mg/kg, 3 h, dose level High
[6] = 600 mg/kg, 6 h, dose level High
[7] = 600 mg/kg, 9 h, dose level High
[8] = 600 mg/kg, 24 h, dose level High

Compound: CCN(CC)C(=S)SSC(=S)N(CC)CC
- TERMINAL_BW [1]: 213.2 g
- APTT [1]: 21.8 s
- Bas [1]: 0%
- Eos [1]: 0.8%
- Fbg [1]: 313.2 mg/dL
- Hb [1]: 13.4 g/dL
- Ht [1]: 41.1%
- MCH [1]: 20.2 pg
- MCHC [1]: 32.6%
- MCV [1]: 62.1 fL
- Mono [1]: 4.2%
- PT [1]: 16.2 s
- Plat [1]: 124 x10_4/uL
- RBC [1]: 662.4 x10_4/ul
- Ret [1]: 7.4%
- WBC [1]: 77.1 x10_2/uL
- ALT [1]: 40.6 IU/L
- CRE [1]: 0.1 mg/dL
- DBIL [1]: 0 mg/dL
- GLC [1]: 181.2 mg/dL
- IP [1]: 9.4 mg/dL
- K [1]: 4.1 meq/L
- LDH [1]: 215.4 IU/L
- Na [1]: 142 meq/L
- PL [1]: 147.8 mg/dL
- RALB [1]: 3.2 g/dL
- TBIL [1]: 0.004 mg/dL
- TC [1]: 80.8 mg/dL
- TG [1]: 84.2 mg/dL
- TP [1]: 5.7 g/dL
- gamma-GTP [1]: 1 IU/L
- TERMINAL_BW [2]: 210.4 g
- APTT [2]: 22.1 s
- Bas [2]: 0%
- Eos [2]: 0.4%
- Fbg [2]: 299.4 mg/dL
- Hb [2]: 13 g/dL
- Ht [2]: 40.2%
- MCH [2]: 20.2 pg
- MCHC [2]: 32.3%
- MCV [2]: 62.4 fL
- Mono [2]: 2.2%
- PT [2]: 15.9 s
- Plat [2]: 123.4 x10_4/uL
- RBC [2]: 644.6 x10_4/ul
- Ret [2]: 7.2%
- WBC [2]: 67.3 x10_2/uL
- ALP [2]: 1309.6 IU/L
- ALT [2]: 37.2 IU/L
- CRE [2]: 0.1 mg/dL
- DBIL [2]: 0.004 mg/dL
- GLC [2]: 194 mg/dL
- IP [2]: 9.6 mg/dL
- K [2]: 4.1 meq/L
- LDH [2]: 192 IU/L
- Na [2]: 141 meq/L
- PL [2]: 125.4 mg/dL
- RALB [2]: 3.1 g/dL
- TBIL [2]: 0.012 mg/dL
- TC [2]: 73.2 mg/dL
- TG [2]: 33 mg/dL
- TP [2]: 5.4 g/dL
- gamma-GTP [2]: 0.8 IU/L
- TERMINAL_BW [3]: 213.7 g
- APTT [3]: 22.8 s
- Bas [3]: 0%
- Eos [3]: 0.6%
- Fbg [3]: 297 mg/dL
- Hb [3]: 13.1 g/dL
- Ht [3]: 40.6%
- MCH [3]: 20 pg
- MCHC [3]: 32.3%
- MCV [3]: 61.8 fL
- Mono [3]: 2%
- PT [3]: 15.9 s
- Plat [3]: 119.2 x10_4/uL
- RBC [3]: 659 x10_4/ul
- Ret [3]: 7.8%
- WBC [3]: 81.1 x10_2/uL
- ALP [3]: 1366 IU/L
- ALT [3]: 34.6 IU/L
- CRE [3]: 0.1 mg/dL
- DBIL [3]: 0.012 mg/dL
- GLC [3]: 195 mg/dL
- IP [3]: 9.1 mg/dL
- K [3]: 4.1 meq/L
- LDH [3]: 141.2 IU/L
- Na [3]: 140.6 meq/L
- PL [3]: 137.8 mg/dL
- RALB [3]: 3.2 g/dL
- TBIL [3]: 0.02 mg/dL
- TC [3]: 80.4 mg/dL
- TG [3]: 46.8 mg/dL
- TP [3]: 5.5 g/dL
- gamma-GTP [3]: 0.8 IU/L
- TERMINAL_BW [4]: 216 g
- APTT [4]: 22 s
- Bas [4]: 0%
- Eos [4]: 0.4%
- Fbg [4]: 301.2 mg/dL
- Hb [4]: 13 g/dL
- Ht [4]: 39.9%
- MCH [4]: 20 pg
- MCHC [4]: 32.5%
- MCV [4]: 61.6 fL
- Mono [4]: 2.4%
- PT [4]: 16.6 s
- Plat [4]: 111.9 x10_4/uL
- RBC [4]: 649.2 x10_4/ul
- Ret [4]: 6.6%
- WBC [4]: 91.8 x10_2/uL
- ALP [4]: 1198.6 IU/L
- ALT [4]: 38.4 IU/L
- CRE [4]: 0.1 mg/dL
- DBIL [4]: 0.004 mg/dL
- GLC [4]: 170 mg/dL
- IP [4]: 7 mg/dL
- K [4]: 4.1 meq/L
- LDH [4]: 160.6 IU/L
- Na [4]: 142.2 meq/L
- PL [4]: 131.6 mg/dL
- RALB [4]: 2.9 g/dL
- TBIL [4]: 0.012 mg/dL
- TC [4]: 80.8 mg/dL
- TG [4]: 83 mg/dL
- TP [4]: 5.3 g/dL
- gamma-GTP [4]: 1.2 IU/L
- TERMINAL_BW [5]: 218 g
- APTT [5]: 21.3 s
- Bas [5]: 0%
- Eos [5]: 0.8%
- Fbg [5]: 293.2 mg/dL
- Hb [5]: 13.4 g/dL
- Ht [5]: 41.4%
- MCH [5]: 20 pg
- MCHC [5]: 32.4%
- MCV [5]: 61.6 fL
- Mono [5]: 4.2%
- PT [5]: 16.2 s
- Plat [5]: 126.4 x10_4/uL
- RBC [5]: 674 x10_4/ul
- Ret [5]: 7.9%
- WBC [5]: 82 x10_2/uL
- ALP [5]: 1358.2 IU/L
- ALT [5]: 45.8 IU/L
- CRE [5]: 0.1 mg/dL
- DBIL [5]: 0.01 mg/dL
- GLC [5]: 194.8 mg/dL
- IP [5]: 10.1 mg/dL
- K [5]: 4 meq/L
- LDH [5]: 250.2 IU/L
- Na [5]: 141.4 meq/L
- PL [5]: 132 mg/dL
- RALB [5]: 3.1 g/dL
- TBIL [5]: 0.008 mg/dL
- TC [5]: 76.6 mg/dL
- TG [5]: 57.8 mg/dL
- TP [5]: 5.6 g/dL
- gamma-GTP [5]: 1 IU/L
- TERMINAL_BW [6]: 211.8 g
- APTT [6]: 23.9 s
- Bas [6]: 0%
- Eos [6]: 0.8%
- Fbg [6]: 304 mg/dL
- Hb [6]: 13.7 g/dL
- Ht [6]: 42.2%
- MCH [6]: 20.5 pg
- MCHC [6]: 32.4%
- MCV [6]: 63.2 fL
- Mono [6]: 2.4%
- PT [6]: 16.3 s
- Plat [6]: 117.9 x10_4/uL
- RBC [6]: 668.2 x10_4/ul
- Ret [6]: 7.1%
- WBC [6]: 73.5 x10_2/uL
- ALP [6]: 1429.6 IU/L
- ALT [6]: 37.6 IU/L
- CRE [6]: 0.1 mg/dL
- DBIL [6]: 0.01 mg/dL
- GLC [6]: 207.2 mg/dL
- IP [6]: 9.7 mg/dL
- K [6]: 4.3 meq/L
- LDH [6]: 182.6 IU/L
- Na [6]: 140.6 meq/L
- PL [6]: 134.2 mg/dL
- RALB [6]: 3.1 g/dL
- TBIL [6]: 0.014 mg/dL
- TC [6]: 80.8 mg/dL
- TG [6]: 23.4 mg/dL
- TP [6]: 5.5 g/dL
- gamma-GTP [6]: 1.2 IU/L
- TERMINAL_BW [7]: 206.5 g
- APTT [7]: 23.7 s
- Bas [7]: 0.2%
- Eos [7]: 0.6%
- Fbg [7]: 299 mg/dL
- Hb [7]: 13.3 g/dL
- Ht [7]: 40.6%
- MCH [7]: 20.7 pg
- MCHC [7]: 32.8%
- MCV [7]: 63.2 fL
- Mono [7]: 2.2%
- PT [7]: 16.2 s
- Plat [7]: 119.4 x10_4/uL
- RBC [7]: 642.4 x10_4/ul
- Ret [7]: 7.3%
- WBC [7]: 77.1 x10_2/uL
- ALP [7]: 1243.4 IU/L
- ALT [7]: 36.6 IU/L
- CRE [7]: 0.1 mg/dL
- DBIL [7]: 0.014 mg/dL
- GLC [7]: 200.4 mg/dL
- IP [7]: 8.9 mg/dL
- K [7]: 4.2 meq/L
- LDH [7]: 184 IU/L
- Na [7]: 140.6 meq/L
- PL [7]: 136 mg/dL
- RALB [7]: 3.2 g/dL
- TBIL [7]: 0.02 mg/dL
- TC [7]: 79.2 mg/dL
- TG [7]: 57.4 mg/dL
- TP [7]: 5.6 g/dL
- gamma-GTP [7]: 1 IU/L
- TERMINAL_BW [8]: 222.1 g
- APTT [8]: 21.6 s
- Bas [8]: 0%
- Eos [8]: 0.8%
- Fbg [8]: 290.2 mg/dL
- Hb [8]: 12.7 g/dL
- Ht [8]: 39%
- MCH [8]: 19.5 pg
- MCHC [8]: 32.4%
- MCV [8]: 60.1 fL
- Mono [8]: 2.2%
- PT [8]: 16 s
- Plat [8]: 115.3 x10_4/uL
- RBC [8]: 649.8 x10_4/ul
- Ret [8]: 6.8%
- WBC [8]: 94.6 x10_2/uL
- ALP [8]: 1144.8 IU/L
- ALT [8]: 40.2 IU/L
- CRE [8]: 0.1 mg/dL
- DBIL [8]: 0.014 mg/dL
- GLC [8]: 177.8 mg/dL
- IP [8]: 7.7 mg/dL
- K [8]: 3.9 meq/L
- LDH [8]: 183.4 IU/L
- Na [8]: 142.4 meq/L
- PL [8]: 149.4 mg/dL
- RALB [8]: 3.1 g/dL
- TBIL [8]: 0.024 mg/dL
- TC [8]: 91 mg/dL
- TG [8]: 92.6 mg/dL
- TP [8]: 5.5 g/dL
- gamma-GTP [8]: 1 IU/L
